Experimental data as given in patent US20210244712A1, “METHODS FOR TREATING PATIENTS WITH CANCER HAVING DEFECTS IN CYCLIN D REGULATION” (NysnoBio Ireland DAC, priority 2018, published 2021).
Entries after “also recorded” stand apart in the source; their conditions may differ.

What was measured:
Assay type in all cases: cell-based
ES-2 [1] = assay: Cell proliferation assay; settings: Homo sapiens
OVCAR-3 = assay: Cell proliferation assay; settings: Homo sapiens; Ovarian OVCAR-3; loss of p16 (mutant p53)
Cyclin D [2] = assay: Cyclin D degradation in cell lines; settings: text summary of Table 7
A2780 = assay: Senescence quantification (SA-βGal); settings: Compound 42 50, 100, or 150 nM, 96 hours, compared to control (DMSO)
Description: (§1) Senescence was quantified in ovarian cell lines A2780, OAW42, and ES-2. Cell lines A2780 has no cyclin D pathway mutations and has wt Rb and Parkin expression. Cell line OAW42 has increased CDK4 and increased CDK6 with wt Rb and Parkin expression. Cell line ES-2 has increased cyclin D and increased mutant […] with wt Rb and Parkin expression.
(§2) Day 1: 96 well plate was seeded with 4000 cells/well and incubated for 24 hours at 37° C.
(§3) Day 2: Compound 42 (50, 100, or 150 nM) or palbociclib (1 μM) as positive control were added to the wells and the plate was incubated for 96 hours at 37° C.
(§4) Day 6: Senescence cells histochemical Staining Kit (Sigma) was used. The growth medium form the cells were aspirated then washed twice with fresh […]. […] 100 μL filtered Fixation Buffer was added per well and the plate was incubated for 6-7 minutes at room temperature. Then, the cells were rinsed 3 times with PBS. 50 μL of the Staining Mixture was added per well and incubated at 37° C. overnight without CO2 (staining is pH dependent). After staining, the Staining Mixture was removed, PBS and Hoechst dye (1 μg/mL) were added. Ten images were taken with Epifluorescence Microscope using the blue filter and 10 images were taken in the brightfield. The images were used to count the total cell number—the positive blue cells were counted in the bright field. The percentage of cells expressing β-galactosidase was calculated.
(§5) Method 1: Mammalian β-Galactosidase Assay Kit (Thermo Scientific) was used. […] The cells were washed once with PBS. 100 μL of the β-Galactosidase Assay Reagent was added to each well and the plate was covered and incubated for 30 minutes at 37° C. without CO2. The absorbance was measured at 405 nm. If no change was observed, the plate was incubated for an extra 30 minutes.
(§6) Method 2: Assay of a portion of the lysate. The cells were washed once with PBS. 50 μL of the M-PER Reagent was added to each well and the plate was incubated at room temperature for […]. 25 μL of lysate was removed and use it for Protein Quantification (BCA). The date was normalize by protein content.

ES-2 [3] = assay: Senescence quantification (SA-βGal); settings: Compound 42 50, 100, or 150 nM, 96 hours, compared to control (DMSO)
Description: as §1, §2, §3, §4, §5, §6

OAW42 = assay: Senescence quantification (SA-βGal); settings: Compound 42 50, 100, or 150 nM, 96 hours, compared to control (DMSO)
Description: as §1, §2, §3, §4, §5, §6

OAW28 = assay: Senescence quantification (SA-βGal); settings: OAW28, loss of Rb expression
Description: as §2, §3, §4
Method 1: Mammalian β-Galactosidase Assay Kit (Thermo Scientific) was used. […] The cells were washed once with PBS. […] The absorbance was measured at 405 nm. […]
(§7) Method 2: Assay of a portion of the lysate. […] 25 μL of lysate was removed and use it for Protein Quantification (BCA). […]

HCT-116 = assay: Senescence quantification (SA-βGal), Example 6A; settings: Compound 42 250 nM, Palbociclib 1 μM, compared to control (DMSO)
Description: Day 1: 96 well plate was seeded with 4000 cells/well and incubated for 24 hours at 37° C. […]
as §4
Method 1: Mammalian β-Galactosidase Assay Kit (Thermo Scientific) was used. […] The cells were washed once with PBS. 100 μL of the β-Galactosidase Assay Reagent was added to each well and the plate was covered and incubated for 30 minutes at 37° C. without CO2. The absorbance was measured at 405 nm. […]
as §7
Senescence was quantified according to Example 4. […]

pRb = assay: Western blot of cellular biomarker pRb
Description: (§8) Various cancer cells lines were treated with Compound 42 or palbociclib (control) to measure the expression of cyclin D, cyclin E, pRb, and Rb.
(§9) Day 1: 6 well plate was seeded with 3×10^5 cells/well with a final volume of 3 mL and incubated for 24 hours at 37° C.
(§10) Day 2: The media was removed and Compound 42 (see below for dose) or palbociclib (1 μM) as positive control were added to the wells the desired concentration in cell culture media, giving a final volume of 3 mL per well. The plate was incubated for 24 hours at 37° C. (or desired period).
(§11) Day 3: The media was removed from wells and washed ×3 with PBS. 500 μl of trypsin was added to the wells and incubate until cells detach. 500 μl media was added to neutralise trypsin, transferred to 2 ml Eppendorfs, and centrifuged (1500 RPM for 5 minutes). While spinning, the wells were washed with 1 mL PBS to collect any remaining cells. This wash was used to centrifuged cell pellet. After the first spin, the supernatant was discarded and the pellet was washed with PBS collected from the previous step. The centrifugation step was repeated and the supernatant was discarded and the pellet wash again with fresh PBS. The centrifugation and wash with PBS was repeated one more time. RIPA cell lysate buffer was prepared and Protease Inhibitor Cocktail was included. The supernatant was discarded and […] RIPA cell lysate buffer was added to the pellet. The protein concentration was determined using the BCA assay kit.
Day 4: Western blot analysis was performed. 4-12% Bis-Tris gel and MOPS running buffer was used. The running buffer was made to sufficient volume of running buffer to 1× concentration. 20 μg protein (v/v loading & reducing buffer) of each sample was loaded into wells. Some proteins may require more, or less, protein loaded. The gel was ran at standard settings 200 V for 45 minutes. […] The membrane was blocked using 5% non-fat powdered milk* made up in 1×TBS containing 0.1% Tween (TBS-T and incubated for 1 hr with gentle rocking. The observation from the Western blot analysis is quantified in FIGS. 2-7D. […]

cyclin E = assay: Western blot of cellular biomarker cyclin E; settings: JEKO-1; 500 nM Compound 42; 48 hours; compared to palbociclib 1 μM
Description: as §8, §9, §10
Day 3: The media was removed from wells and washed ×3 with PBS. 500 μl of trypsin was added to the wells and incubate until cells detach. 500 μl media was added to neutralise trypsin, transferred to 2 ml Eppendorfs, and centrifuged (1500 RPM for 5 minutes). While spinning, the wells were washed with 1 mL PBS to collect any remaining cells. This wash was used to centrifuged cell pellet. After the first spin, the supernatant was discarded and the pellet was washed with PBS collected from the previous step. […] The protein concentration was determined using the BCA assay kit.
Day 4: Western blot analysis was performed. […] The membrane was blocked using 5% non-fat powdered milk* made up in 1×TBS containing 0.1% Tween (TBS-T and incubated for 1 hr with gentle rocking. The observation from the Western blot analysis is quantified in FIGS. 2-7D. […]

Cyclin D [4] = assay: Western blot of cellular biomarker cyclin D
Description: as §8, §9, §10, §11
Day 4: Western blot analysis was performed. 4-12% Bis-Tris gel and MOPS running buffer was used. The running buffer was made to sufficient volume of running buffer to 1× concentration. 20 μg protein (v/v loading & reducing buffer) of each sample was loaded into wells. Some proteins may require more, or less, protein loaded. The gel was ran at standard settings 200 V for 45 minutes. Once gel has run, the gel was transferred for 7 minutes using the iBlot Blotting System. The membrane was blocked using 5% non-fat powdered milk* made up in 1×TBS containing 0.1% Tween (TBS-T and incubated for 1 hr with gentle rocking. The observation from the Western blot analysis is quantified in FIGS. 2-7D.
Cell line JEKO-1 (mantle cell line with cyclin D chromosome translocation, amplification of cyclin D) was treated with DMSO (control), 500 nM of Compound 42, or 1 μM of Palbociclib. Treated cells were incubated for 48 hours and data represented in FIGS. 6A-6C represents n=1.

[5] = HT116, with increasing concentration

**Q.** For `Cc1ccccc1C(=O)Nc1nc(NC(=O)c2ccccc2C)n(-c2ccc(OC(F)(F)F)cc2)n1` [Compound 42, N,N′-(1-(4-(trifluoromethoxy)phenyl)-1H-1,2,4-triazole-3,5-diyl)bis(2-methylbenzamide)], which IC50 (ES-2 [1]; Ovarian ES-2, overexpression of Cyclin D, loss of p16 (mutant p53)) is on record?
**A.** Its IC50 is 57 nM.

**Q.** And the EC50 (ES-2 [1]; Table 7a, Ovarian (ES-2))?
**A.** Its EC50 is 42 nM.

**Q.** What about the IC50 (OVCAR-3) of the same compound?
**A.** The IC50 was 140 nM.

**Q.** What about the “degrading Cyclin D, overall statement” value (Cyclin D [2]) of the same compound?
**A.** The value was “effective in degrading Cyclin D”.

**Q.** What about the “senescence (SA-βGal levels)” value (A2780) of the same compound?
**A.** Its value is “induced senescence”.

**Q.** What about the “senescence (SA-βGal levels)” value (ES-2 [3]) of the same compound?
**A.** Its value is “induced senescence”.

**Q.** And the “senescence (SA-βGal levels)” value (OAW42)?
**A.** The value was “induced senescence”.

**Q.** And the cell senescence (OAW28)?
**A.** Its cell senescence is “not observed; also recorded: no senescence; also recorded: += weak senescence due to loss of RB”.

**Q.** And the “senescence (SA-βGal levels)” value (HCT-116)?
**A.** Its value is “induced senescence”.

**Q.** And the pRb expression (pRb; A2780, 250 nM Compound 42, 24 hours, compared to palbociclib 1 μM)?
**A.** The pRb expression was “some reduction of pRb expression”.

**Q.** And the pRb expression (pRb; [5])?
**A.** The pRb expression was “reduction”.

**Q.** And the pRb expression (pRb; OAW42, 250 nM Compound 42, 24 hours, compared to palbociclib 1 μM)?
**A.** Its pRb expression is “reduction of pRb expression”.

**Q.** And the “cyclin E expression” value (cyclin E)?
**A.** The value was “reduction of cyclin E and cyclin D expression”.

**Q.** What about the “normalization of cyclin D” value (Cyclin D [4]; HCT-116 (p16 mutation), Compound 42 250 nM, Palbociclib 1 μM) of the same compound?
**A.** The value was “normalized cyclic D”.

**Q.** And the “cyclin D expression” value (Cyclin D [4]; [5])?
**A.** Its value is “reduction”.

**Q.** And the “cyclin D expression” value (Cyclin D [4]; JEKO-1, 500 nM Compound 42, 48 hours, compared to palbociclib 1 μM)?
**A.** The value was “reduction of cyclin E and cyclin D expression”.

**Q.** What about the “cyclin D expression” value (Cyclin D [4]; OAW28) of the same compound?
**A.** Its value is “decreased”.
